Among the data in US11845724B2, “USP30 inhibitors and uses thereof” (Vincere Biosciences, Inc., priority 2019, dated 2023) are IC50 values, retold here.

SMILES strings stand for the structures. Where a name gives a salt, the structure may show the parent alone.

The target in one experiment is recombinant USP30 (amino acids 57-517 of the human sequence) (Homo sapiens (Human), UniProt Q70CQ3). In words: In vitro USP30 biochemical assay (Ubiquitin-Rhodamine). The note with it: USP30 IC50 μM (avg), Ubiquitin-Rhodamine substrate 25 nM, 1.5 nM recombinant USP30.
Chain of recombinant USP30 (amino acids 57-517 of the human sequence) (Q70CQ3 57-517): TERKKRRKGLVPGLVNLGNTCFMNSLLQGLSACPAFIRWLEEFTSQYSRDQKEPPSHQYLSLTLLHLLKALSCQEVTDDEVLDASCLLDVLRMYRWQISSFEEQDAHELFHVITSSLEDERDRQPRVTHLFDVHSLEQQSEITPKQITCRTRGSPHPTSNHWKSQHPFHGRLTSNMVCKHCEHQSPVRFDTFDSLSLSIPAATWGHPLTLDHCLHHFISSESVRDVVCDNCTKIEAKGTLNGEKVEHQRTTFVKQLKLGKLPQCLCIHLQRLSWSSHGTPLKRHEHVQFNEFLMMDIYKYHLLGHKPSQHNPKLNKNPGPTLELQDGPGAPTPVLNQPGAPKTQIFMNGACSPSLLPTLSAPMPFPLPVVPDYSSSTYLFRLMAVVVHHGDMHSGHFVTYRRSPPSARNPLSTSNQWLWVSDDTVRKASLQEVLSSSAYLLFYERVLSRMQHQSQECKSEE
Method: In vitro biochemical assay to establish the potency of compounds for USP30 inhibition: a 384-well plate assay using a fluorophore tagged substrate of USP30 was used for in vitro screening of compounds. Each compound was tested at 10 different concentrations (0.5 to 10,000 nM) in duplicate wells. Compounds were pre-incubated at 25° C. for 30 min in an assay buffer consisting of 20 mM Tris/HCl, pH8.0, 1 mM GSH, 0.01% Triton X-100, 0.03% BGG and 1.5 nM recombinant USP30 (amino acids 57-517 of the human sequence with a C-terminal 6-His tag). Following the pre-incubation, Ubiquitin-Rhodamine substrate dissolved in the assay buffer was added at the final concentration of 25 nM to each well and plates were incubated at 25° C. for an additional 75 minutes. The reaction was stopped by adding 10 mM citric acid and fluorescence was read using excitation wavelength 485 nm, emission of 535 nm. Data were analyzed using Graph Pad Prism software with a four-parameter (floating slope) fit to log concentration data to determine IC50s.
The term IC50 denotes the concentration needed to halve the response being measured. `O=C(N[C@@H](Cc1ccccc1)C(=O)Nc1ccc(S(=O)(=O)NCCO)nc1)c1ccc(F)cc1` [Compound I-110, (S)-4-fluoro-N-(1-(6-(N-(2-hydroxyethyl)sulfamoyl)pyridin-3-ylamino)-1-oxo-3-phenylpropan-2-yl)benzamide]: the concentration for half-maximal inhibition (IC50) is 0.05 to 1 µM.

Take `COCC(C)(C)NS(=O)(=O)c1ccc(NC(=O)[C@H](Cc2ccccc2)N(C)C(=O)c2ccc(F)cc2)cc1OC` [Compound I-159, (S)-4-fluoro-N-(1-(3-methoxy-4-(N-(1-methoxy-2-methylpropan-2-yl)sulfamoyl)phenylamino)-1-oxo-3-phenylpropan-2-yl)-N-methylbenzamide]: the half-maximal inhibitory concentration (IC50) lay within 1 to 10 µM. Same read-out and setting: in the case of `CC(C)(C#N)NS(=O)(=O)c1ccc(NC(=O)[C@H](Cc2ccccc2)NC(=O)c2ccc(F)cc2)cc1` [Compound I-172, (S)-N-(1-(4-(N-(2-cyanopropan-2-yl)sulfamoyl)phenylamino)-1-oxo-3-phenylpropan-2-yl)-4-fluorobenzamide] it was 0.05 to 1 µM.

For `O=C(N[C@@H](Cc1ccccc1)C(=O)Nc1ccc(S(=O)(=O)NC2COC2)c(Cl)c1)c1ccc(F)cc1` [Compound I-170, (S)-N-(1-(3-chloro-4-(N-oxetan-3-ylsulfamoyl)phenylamino)-1-oxo-3-phenylpropan-2-yl)-4-fluorobenzamide], the IC50 fell in the range of 0.05 to 1 µM. Still for that read-out and setting: the figure for `C#CC(C)(C)NS(=O)(=O)c1ccc(NC(=O)[C@H](Cc2ccccc2)NC(=O)c2ccc(F)cc2)cc1OC` [Compound I-181, (S)-4-fluoro-N-(1-(3-methoxy-4-(N-(2-methylbut-3-yn-2-yl)sulfamoyl)phenylamino)-1-oxo-3-phenylpropan-2-yl)benzamide] is 0.05 to 1 µM; for `CC(C)(C#N)NS(=O)(=O)c1ccc(NC(=O)[C@H](Cc2ccccc2)NC(=O)c2ccc(F)cc2)cn1` [Compound I-176, (S)-N-(1-(6-(N-(2-cyanopropan-2-yl)sulfamoyl)pyridin-3-ylamino)-1-oxo-3-phenylpropan-2-yl)-4-fluorobenzamide] it is 0.05 to 1 µM; for `COCC(C)(C)NS(=O)(=O)c1ccc(NC(=O)[C@H](Cc2ccccc2)N(C)C(=O)c2ccc(F)cc2)cc1` [Compound I-160, (S)-4-fluoro-N-(1-(4-(N-(1-methoxy-2-methylpropan-2-yl)sulfamoyl)phenylamino)-1-oxo-3-phenylpropan-2-yl)-N-methylbenzamide] it is 1 to 10 µM. `COc1cc(NC(=O)[C@H](Cc2ccccc2)NC(=O)c2ccc(F)cc2)ccc1S(=O)(=O)NC(C)(C)CCN1CCOCC1` [Compound I-154, (S)-4-fluoro-N-(1-(3-methoxy-4-(N-(2-methyl-4-morpholinobutan-2-yl)sulfamoyl)phenylamino)-1-oxo-3-phenylpropan-2-yl)benzamide]: the half-inhibitory concentration (IC50) fell in the range of 0.05 to 1 µM. The same measure, in the same setting: the figure for `O=C(N[C@@H](Cc1ccccc1)C(=O)Nc1ccc(S(=O)(=O)NC23CC(C2)C3)c(Cl)c1)c1ccc(F)cc1` [Compound I-169, (S)-N-(1-(4-(N-bicyclo[1.1.1]pentan-1-ylsulfamoyl)-3-chlorophenylamino)-1-oxo-3-phenylpropan-2-yl)-4-fluorobenzamide] is 0.05 to 1 µM. Still for that read-out and setting: in the case of `CCNS(=O)(=O)c1ccc(NC(=O)[C@H](Cc2ccccc2)NC(=O)c2ccc(F)cc2)c(OC)c1` [Compound I-143, (S)-N-(1-(4-(N-ethylsulfamoyl)-2-methoxyphenylamino)-1-oxo-3-phenylpropan-2-yl)-4-fluorobenzamide] it was 1 to 10 µM; in that of `COc1cc(NC(=O)[C@H](Cc2ccccc2)NC(=O)c2ccc(F)cc2)ccc1S(=O)(=O)NC(C)(C)C#N` [Compound I-180, (S)-N-(1-(4-(N-(2-cyanopropan-2-yl)sulfamoyl)-3-methoxyphenylamino)-1-oxo-3-phenylpropan-2-yl)-4-fluorobenzamide], 0.05 to 1 µM; in that of `COc1cc(NC(=O)[C@H](Cc2ccccc2)NC(=O)c2ccc(F)cc2)ccc1S(=O)(=O)NC(C)(C)CN1CCOCC1` [Compound I-153, (S)-4-fluoro-N-(1-(3-methoxy-4-(N-(2-methyl-1-morpholinopropan-2-yl)sulfamoyl)phenylamino)-1-oxo-3-phenylpropan-2-yl)benzamide], 0.05 to 1 µM.

As for `O=C(N[C@@H](Cc1ccccc1)C(=O)Nc1ccc(S(=O)(=O)N[C@@H]2CCOC2)nc1)c1ccc(F)cc1` [Compound I-179, 4-fluoro-N-((S)-1-oxo-3-phenyl-1-(6-(N-((R)-tetrahydrofuran-3-yl)sulfamoyl)pyridin-3-ylamino)propan-2-yl)benzamide], the 50% inhibitory concentration (IC50) was in the range of 0.05 to 1 µM. On the same count and under the same terms, the figure for `CN(C)CCNS(=O)(=O)c1ccc(NC(=O)[C@H](Cc2ccccc2)NC(=O)c2ccc(F)cc2)cn1` [Compound I-109, (S)-N-(1-(6-(N-(2-(dimethylamino)ethyl)sulfamoyl)pyridin-3-ylamino)-1-oxo-3-phenylpropan-2-yl)-4-fluorobenzamide formate] is 1 to 10 µM. On the same count and under the same terms, in the case of `COCCC(C)(C)NS(=O)(=O)c1ccc(NC(=O)[C@H](Cc2ccccc2)NC(=O)c2ccc(F)cc2)cc1Cl` [Compound I-171, (S)-N-(1-(3-chloro-4-(N-(4-methoxy-2-methylbutan-2-yl)sulfamoyl)phenylamino)-1-oxo-3-phenylpropan-2-yl)-4-fluorobenzamide] it was 0.05 to 1 µM.

The same experiment, now with this note: read-out: USP30 IC50 μM (avg), Ubiquitin-Rhodamine substrate 25 nM, 1.5 nM recombinant USP30.
On to `CC(C)(C)NS(=O)(=O)c1ccc(NC(=O)[C@H](Cc2ccccc2)NC(=O)c2ccc(F)cc2)cc1C#N` [Compound I-167, (S)-N-(1-(4-(N-tert-butylsulfamoyl)-3-cyanophenylamino)-1-oxo-3-phenylpropan-2-yl)-4-fluorobenzamide], for which the half-inhibitory concentration (IC50) was less than 0.05 µM.

As to `COc1cc(NC(=O)[C@H](Cc2ccccc2)NC(=O)c2ccc(F)cc2)ccc1S(=O)(=O)N[C@H]1CCOC1` [Compound I-182, 4-fluoro-N-((S)-1-(3-methoxy-4-(N-((S)-tetrahydrofuran-3-yl)sulfamoyl)phenylamino)-1-oxo-3-phenylpropan-2-yl)benzamide], the half-inhibitory concentration (IC50) is less than 0.05 µM. On the same count and under the same terms, in the case of `O=C(N[C@@H](Cc1ccccc1)C(=O)Nc1ccc(S(=O)(=O)N[C@H]2CCOC2)nc1)c1ccc(F)cc1` [Compound I-178, 4-fluoro-N-((S)-1-oxo-3-phenyl-1-(6-(N-((S)-tetrahydrofuran-3-yl)sulfamoyl)pyridin-3-ylamino)propan-2-yl)benzamide] it was less than 0.05 µM. For `CN(C)S(=O)(=O)c1cccc2c(NC(=O)[C@H](Cc3ccccc3)NC(=O)C3CCCCC3)cccc12` [Compound I-127, (S)-N-(1-(5-(N,N-dimethylsulfamoyl)naphthalen-1-ylamino)-1-oxo-3-phenylpropan-2-yl)cyclohexanecarboxamide], the IC50 is more than 10 µM. Same read-out and setting: in the case of `CC(C)(CCN1CCOCC1)NS(=O)(=O)c1ccc(NC(=O)[C@H](Cc2ccccc2)NC(=O)c2ccc(F)cc2)cc1` [Compound I-163, (S)-4-fluoro-N-(1-(4-(N-(2-methyl-4-morpholinobutan-2-yl)sulfamoyl)phenylamino)-1-oxo-3-phenylpropan-2-yl)benzamide] it was less than 0.05 µM; in that of `CC(C)(C)NS(=O)(=O)c1ccc(NC(=O)C2Cc3ccncc3N2C(=O)c2ccc(F)cc2)cc1` (centres unmarked) [Compound I-56, N-(4-(N-tert-butylsulfamoyl)phenyl)-1-(4-fluorobenzoyl)-2,3-dihydro-1H-pyrrolo[2,3-c]pyridine-2-carboxamide], more than 10 µM. Still for that read-out and setting: the figure for `CC(C)(C)NS(=O)(=O)c1ccc(NC(=O)[C@H](Cc2ccccc2)NC(=O)C2COC2)cc1` [Compound I-86, (S)-N-(1-(4-(N-tert-butylsulfamoyl)phenylamino)-1-oxo-3-phenylpropan-2-yl)oxetane-3-carboxamide] is more than 10 µM. Still for that read-out and setting: the figure for `COc1cc(NC(=O)[C@H](Cc2ccccc2)NC(=O)c2ccc(F)cc2)ccc1S(=O)(=O)N[C@@H]1CCOC1` [Compound I-183, 4-fluoro-N-((S)-1-(3-methoxy-4-(N-((R)-tetrahydrofuran-3-yl)sulfamoyl)phenylamino)-1-oxo-3-phenylpropan-2-yl)benzamide] is less than 0.05 µM. `O=C(N[C@@H](Cc1ccccc1)C(=O)Nc1ccc(S(=O)(=O)N[C@H]2CCOC2)cc1)c1ccc(F)cc1` [Compound I-174, 4-fluoro-N-((S)-1-oxo-3-phenyl-1-(4-(N-((S)-tetrahydrofuran-3-yl)sulfamoyl)phenylamino)propan-2-yl)benzamide]: the IC50 was less than 0.05 µM.

With `CC(C)(C)NS(=O)(=O)c1ccc(NC(=O)[C@H](Cc2ccccc2)NS(=O)(=O)c2ccc(F)cc2)cc1` [Compound I-165, (S)-N-(4-(N-tert-butylsulfamoyl)phenyl)-2-(4-fluorophenylsulfonamido)-3-phenylpropanamide], the IC50 was more than 10 µM. Still for that read-out and setting: the figure for `O=C(NC1(C(=O)Nc2ccc(S(=O)(=O)NC3CC3)cc2)Cc2ccccc2C1)c1ccc(F)cc1` [Compound I-103, N-(4-(N-cyclopropylsulfamoyl)phenyl)-2-(4-fluorobenzamido)-2,3-dihydro-1H-indene-2-carboxamide] is more than 10 µM. The same measure, in the same setting: in the case of `CC(C)(C)NS(=O)(=O)c1ccc(NC(=O)[C@H](Cc2ccccc2)NC(=O)c2ccc(F)cc2)cc1Cl` [Compound I-168, (S)-N-(1-(4-(N-tert-butylsulfamoyl)-3-chlorophenylamino)-1-oxo-3-phenylpropan-2-yl)-4-fluorobenzamide] it was less than 0.05 µM; in that of `C#CC(C)(C)NS(=O)(=O)c1ccc(NC(=O)[C@H](Cc2ccccc2)NC(=O)c2ccc(F)cc2)cc1` [Compound I-173, (S)-4-fluoro-N-(1-(4-(N-(2-methylbut-3-yn-2-yl)sulfamoyl)phenylamino)-1-oxo-3-phenylpropan-2-yl)benzamide], less than 0.05 µM; in that of `CN(C)S(=O)(=O)c1cccc2c(NC(=O)[C@H](Cc3ccccc3)NC(=O)c3ccc(F)cc3)cccc12` [Compound I-128, (S)-N-(1-(5-(N,N-dimethylsulfamoyl)naphthalen-1-ylamino)-1-oxo-3-phenylpropan-2-yl)-4-fluorobenzamide], more than 10 µM.
